Source: patent publication US5567692A, “9-[(substituted glycyl) amido)]-6-demethyl-6-deoxytetracyclines” (priority 1995, dated 1996)
In brackets after ≈: the same amount, converted by molar mass. Where a name gives a salt, the structure may show the parent alone. Read-outs that look alike come from different tables or passages of the source.

Key:
[1] = test system: E. coli UBMS 89-2 Tet sens.; test: MIC, agar dilution; format: cell-based
[2] = test system: S. aureus IVES 2943; test: MIC, agar dilution; format: cell-based
[3] = test system: S. aureus UBMS 90-3; test: MIC, agar dilution; format: cell-based; details: S. aureus UBMS 90-3
[4] = test system: Ps. aeruginosa ATCC 27853; test: MIC, agar dilution; format: cell-based; details: Ps. aeruginosa ATCC 27853
[5] = test system: S. aureus ATCC 29213; test: MIC, agar dilution; format: cell-based; details: Staphylococcus aureus, ATCC29213, 18 h, S. aureus ATCC 29213; read-out: MIC
[6] = test system: E. coli PRP1 Tet A; test: microbe, parasite or virus in culture; format: cell-based
[7] = test system: E. coli J3272 Tet C; test: microbe, parasite or virus in culture; format: cell-based
[8] = test system: Enterococcus 12201; test: MIC, agar dilution; format: cell-based
[9] = test system: Staphylococcus aureus strain Smith (tetracycline sensitive); test: Acute lethal infection in mice, S. aureus Smith; format: in vivo; details: for ED50: mice, S. aureus Smith (Sens), 7 day survival; for in vivo activity (in words): tested intravenously against the minocycline sensitive organism S. aureus Smith
[10] = test system: S. aureus IVES 1983; test: MIC, agar dilution; format: cell-based
[11] = test system: S. aureus ROSE (MP); test: MIC, agar dilution; format: cell-based
[12] = test system: S. aureus NEMC 8769; test: MIC, agar dilution; format: cell-based
[13] = test system: S. aureus UBMS 88-7 Tet K; test: microbe, parasite or virus in culture; format: cell-based
[14] = test system: S. aureus UBMS 88-4; test: MIC, agar dilution; format: cell-based
[15] = test system: E. coli J2175; test: MIC, agar dilution; format: cell-based
[16] = test system: X. maltophilia NEMC 87210; test: MIC, agar dilution; format: cell-based
[17] = test system: E. coli MC 4100 TNIOC Tet B; test: microbe, parasite or virus in culture; format: cell-based
[18] = test system: E. faecalis ATCC 29212; test: MIC, agar dilution; format: cell-based; details: E. faecalis ATCC 29212
[19] = test system: S. aureus SMITH (MP); test: MIC, agar dilution; format: cell-based
[20] = test system: E. coli UBMS 88-1 Tet B; test: microbe, parasite or virus in culture; format: cell-based
[21] = test system: S. marcescens FPOR 8733; test: MIC, agar dilution; format: cell-based
[22] = test system: E. coli BAJ9003 IMP MUT; test: microbe, parasite or virus in culture; format: cell-based; details: E. coli BAJ9003 IMP MUT
[23] = test system: S. hemolyticus AVHAH 88-3; test: MIC, agar dilution; format: cell-based
[24] = test system: E. coli UBMS 90-4 Tet M; test: microbe, parasite or virus in culture; format: cell-based; details: Escherichia coli, UBMS904TETM, 18 h
[25] = test system: S. aureus UBMS 90-1 Tet M; test: microbe, parasite or virus in culture; format: cell-based; details: Staphylococcus aureus, UBMS901TETM, 18 h
[26] = test system: E. coli UBMS 90-5; test: microbe, parasite or virus in culture; format: cell-based; details: E. coli UBMS 90-5
[27] = test system: E. coli #311 (MP); test: MIC, agar dilution; format: cell-based; details: Escherichia coli, 18 h
[28] = test system: S. aureus UBMS 90-2 Tet M; test: microbe, parasite or virus in culture; format: cell-based; details: Staphylococcus aureus, UBMS902TETM, 18 h
[29] = test system: E. coli ATCC 25922; test: MIC, agar dilution; format: cell-based
[30] = test system: E. coli J3272 Tet D; test: microbe, parasite or virus in culture; format: cell-based; details: monohydrochloride
[31] = test system: E. coli UBMS 89-1 Tet M; test: microbe, parasite or virus in culture; format: cell-based
[32] = test system: S. aureus UBMS 88-5 Tet M; test: microbe, parasite or virus in culture; format: cell-based; details: Staphylococcus aureus, UBMS885TETM, 18 h
[33] = Staphylococcus aureus, NEMC8769, 18 h, read-out: MIC
[34] = Pseudomonas aeruginosa, ATCC27853, 18 h, read-out: MIC
[35] = Escherichia coli, PRP1TETA, 18 h
[36] = Escherichia coli, J3272TETC, 18 h
[37] = Staphylococcus aureus, IVES1983, 18 h
[38] = Staphylococcus aureus, 18 h, read-out: MIC
[39] = Staphylococcus aureus, UBMS887TETK, 18 h
[40] = Escherichia coli, UBMS905, 18 h, read-out: MIC
[41] = Escherichia coli, 18 h, read-out: MIC
[42] = Escherichia coli, UBMS881TETB, 18 h
[43] = Serratia marcescens, FPOR8733, 18 h, read-out: MIC

CN(C)CC(=O)Nc1ccc2c(c1O)C(=O)C1=C(O)[C@]3(O)C(=O)C(C(N)=O)=C(O)[C@@H](N(C)C)C3CC1C2 (stereo partly drawn) [BB, [4S-(4alpha,12aalpha)]-4-(Dimethylamino)-9-[[(dimethylamino)acetyl]amino]-1,4,4a,5,5a,6,11,12a-octahydro-3,10,12,12a-tetrahydroxy-1,11-dioxo-2-naphthacenecarboxamide]
MIC ([1]; E. coli UBMS 89-2 Tet sens.): 0.25 µg/mL (≈ 0.486 µM)
MIC ([2]; S. aureus IVES 2943): 0.5 µg/mL (≈ 0.972 µM)
MIC [3]: 0.06 µg/mL (≈ 0.117 µM)
MIC [4]: 8 µg/mL (≈ 15.5 µM)
MIC [5]: 0.3 µg/mL (≈ 0.583 µM)
MIC [6]: 0.5 µg/mL (≈ 0.972 µM)
MIC [7]: 0.25 µg/mL (≈ 0.486 µM)
MIC ([8]; Enterococcus 12201): 0.06 µg/mL (≈ 0.117 µM)
ED50 ([9]; Intraveneous, 10080 min): 0.5 to 1 mg/kg
ED50 ([9]; Oral, 10080 min): 8 to 16 mg/kg
in vivo activity (in words) [9]: very good in vivo activity
MIC ([10]; Staphylococcus aureus, IVES1983, 18 h, S. aureus IVES 1983, read-out: MIC): 0.5 µg/mL (≈ 0.972 µM)
MIC ([11]; Staphylococcus aureus, 18 h): 2 µg/mL (≈ 3.89 µM)
MIC [12, 33]: < 0.015 µg/mL
MIC [13]: 0.5 µg/mL (≈ 0.972 µM)
MIC ([14]; S. aureus UBMS 88-4): 0.06 µg/mL (≈ 0.117 µM)
MIC [15]: 0.25 µg/mL (≈ 0.486 µM)
MIC ([16]; X. maltophilia NEMC 87210): 1 µg/mL (≈ 1.94 µM)
MIC ([17]; E. coli MC 4100 TNIOC Tet B): 0.25 µg/mL (≈ 0.486 µM)
MIC [18]: 0.06 µg/mL (≈ 0.117 µM)
MIC ([19]; S. aureus SMITH (MP)): 0.06 µg/mL (≈ 0.117 µM)
MIC ([20]; E. coli UBMS 88-1 Tet B): 0.25 µg/mL (≈ 0.486 µM)
MIC ([21]; Serratia marcescens, FPOR8733, 18 h): 2 µg/mL (≈ 3.89 µM)
MIC [22]: no growth

CN(C)[C@@H]1C(O)=C(C(N)=O)C(=O)[C@@]2(O)C(O)=C3C(=O)c4c(ccc(NC(=O)CN5CCCC5)c4O)CC3CC12 (stereo partly drawn) [D, [7S-(7alpha,10aalpha)]-N-[9-(Aminocarbonyl)-7-(dimethylamino)-5,5a,6,6a,7-10,10a,12-octahydro-1,8,10a,11-tetrahydroxy-10,12-dioxo-2-naphthacenyl]-1-pyrrolidineacetamide dihydrochloride]
MIC ([1]; Escherichia coli, 18 h): 0.25 µg/mL
MIC ([2]; Staphylococcus aureus, IVES2943, 18 h): 1 µg/mL
MIC [4, 34]: 16 µg/mL
MIC ([23]; Streptococcus pyogenes, AVHAH883, 18 h): 0.25 µg/mL
MIC [6, 35]: 0.25 µg/mL
MIC [7, 36]: 0.25 µg/mL
ED50 ([9]; Staphylococcus aureus, iv, 168 h, Intraveneous, read-out: ED50): 1 to 2 mg/kg
ED50 ([9]; Staphylococcus aureus, po, 168 h, Oral, read-out: ED50): > 16 mg/kg
in vivo activity (in words) [9]: very good in vivo activity
MIC [10, 37]: 1 µg/mL
MIC [24]: 0.25 µg/mL
MIC [11, 38]: 2 µg/mL
MIC ([12]; Staphylococcus aureus, NEMC8769, 18 h): 0.06 µg/mL
MIC [25]: 0.25 µg/mL
MIC [13, 39]: 0.5 µg/mL
MIC [26, 40]: 0.25 µg/mL
MIC [15, 41]: 0.25 µg/mL
MIC ([16]; Stenotrophomonas maltophilia, NEMC87210, 18 h): 1 µg/mL
MIC ([17]; Escherichia coli, 18 h): 0.25 µg/mL
MIC [27]: 0.25 µg/mL
MIC [28]: 0.25 µg/mL
MIC [20, 42]: 0.25 µg/mL
MIC [21, 43]: 2 µg/mL

CN(C)CC(=O)Nc1ccc2c(c1O)C(=O)C1=C(O)[C@]3(O)C(=O)C(C(N)=O)=C(O)[C@@H](N(C)C)C3CC1C2 (stereo partly drawn) [DD, [4S-(4alpha,12aalpha)]-4-(Dimethylamino)-9-[[(dimethylamino)acetyl]amino]-1,4,4a,5,5a,6,11,12a-octahydro-3,10,12,12a-tetrahydroxy-1,11-dioxo-2-naphthacenecarboxamide monohydrochloride]
MIC ([2]; S. aureus IVES 2943, monohydrochloride): 1 µg/mL
MIC ([3]; monohydrochloride): 0.06 µg/mL
MIC ([4]; monohydrochloride): 8 µg/mL
MIC ([23]; S. hemolyticus AVHAH 88-3, monohydrochloride): 0.25 µg/mL
MIC ([6]; monohydrochloride): 1 µg/mL
MIC ([7]; monohydrochloride): 1 µg/mL
ED50 ([9]; Intraveneous, monohydrochloride, 10080 min): 0.67 mg/kg
ED50 ([9]; Oral, monohydrochloride, 10080 min): 12 mg/kg
in vivo activity (in words) [9]: very good in vivo activity
MIC ([10]; S. aureus IVES 1983, monohydrochloride): 1 µg/mL
MIC ([11]; monohydrochloride): 4 µg/mL
MIC ([12]; monohydrochloride): 0.03 µg/mL
MIC ([29]; monohydrochloride): 0.25 µg/mL
MIC ([13]; monohydrochloride): 1 µg/mL
MIC [30]: 0.25 µg/mL
MIC [26]: 0.25 µg/mL
MIC ([16]; X. maltophilia NEMC 87210, monohydrochloride): 2 µg/mL
MIC ([18]; monohydrochloride): 0.06 µg/mL
MIC ([31]; monohydrochloride): 0.5 µg/mL
MIC [27]: 0.25 µg/mL
MIC [21]: 4 µg/mL

CC(C)CNCC(=O)Nc1ccc2c(c1O)C(=O)C1=C(O)[C@]3(O)C(=O)C(C(N)=O)=C(O)[C@@H](N(C)C)C3CC1C2 (stereo partly drawn) [M, [4S-(4alpha,12aalpha)]-4-(Dimethylamino)-1,4,4a,5,5a,6,11,12a-octahydro-3,10,12,12a-tetrahydroxy-9-[[[(2-methylpropyl)amino]acetyl]amino]-1,11-dioxo-2-naphthacenecarboxamide dihydrochloride]
MIC ([1]; Escherichia coli, 18 h): 1 µg/mL
MIC ([2]; Staphylococcus aureus, IVES2943, 18 h, S. aureus IVES 2943, read-out: MIC): 4 µg/mL
MIC [4, 34]: 32 µg/mL
MIC ([23]; Streptococcus pyogenes, AVHAH883, 18 h, S. hemolyticus AVHAH 88-3, read-out: MIC): 2 µg/mL
MIC [6, 35]: 1 µg/mL
MIC [7, 36]: 1 µg/mL
MIC ([8]; Enterococcus, 12201, 18 h): 0.5 µg/mL
MIC [10, 37]: 2 µg/mL
MIC [24]: 0.5 µg/mL
MIC [11, 38]: 8 µg/mL
MIC [12, 33]: 8 µg/mL
MIC [25]: 0.5 µg/mL
MIC ([29]; Escherichia coli, ATCC25922, 18 h): 0.5 µg/mL
MIC [13, 39]: 2 µg/mL
MIC ([14]; Staphylococcus aureus, UBMS884, 18 h): 0.5 µg/mL
MIC [26, 40]: 1 µg/mL
MIC [15, 41]: 1 µg/mL
MIC ([16]; Stenotrophomonas maltophilia, NEMC87210, 18 h, X. maltophilia NEMC 87210, read-out: MIC): 2 µg/mL
MIC ([17]; Escherichia coli, 18 h): 1 µg/mL
MIC ([31]; Escherichia coli, UBMS891TETM, 18 h): 0.5 µg/mL
MIC [32]: 0.5 µg/mL
MIC [27]: 1 µg/mL
MIC [28]: 0.5 µg/mL
MIC ([19]; Staphylococcus aureus, 18 h): 0.5 µg/mL
MIC [20, 42]: 1 µg/mL
MIC [21, 43]: 8 µg/mL
